From PubChem BioAssay (NCI)
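Protocol summary: plate cells (96-well), add compound at 5 concentrations, incubate 48 h, interpolate endpoints linearly. TGI marks complete inhibition of growth.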

Tests used:
Experiment in all cases: inhibition of tumour cell growth, NCI panel, 48 h
BT-549 breast = tested on: BT-549 breast
HT29 colon = tested on: HT29 colon
CAKI-1 renal = tested on: CAKI-1 renal
MALME-3M melanoma = tested on: MALME-3M melanoma
CCRF-CEM leukemia = tested on: CCRF-CEM leukemia
786-0 renal = tested on: 786-0 renal
UO-31 renal = tested on: UO-31 renal
HCT-116 colon = tested on: HCT-116 colon
NCI-H522 lung = tested on: NCI-H522 lung
SF-268 CNS = tested on: SF-268 CNS
SK-OV-3 ovarian = tested on: SK-OV-3 ovarian
LOX IMVI melanoma = tested on: LOX IMVI melanoma
HCC-2998 colon = tested on: HCC-2998 colon
EKVX NSCLC = tested on: EKVX NSCLC
NCI-H226 lung = tested on: NCI-H226 lung
MDA-MB-435 = tested on: MDA-MB-435
HS 578T breast = tested on: HS 578T breast
PC-3 prostate = tested on: PC-3 prostate
HCT-15 colon = tested on: HCT-15 colon
COLO 205 colon = tested on: COLO 205 colon
IGROV1 ovarian = tested on: IGROV1 ovarian
SK-MEL-5 melanoma = tested on: SK-MEL-5 melanoma
RPMI-8226 leukemia = tested on: RPMI-8226 leukemia
OVCAR-8 ovarian = tested on: OVCAR-8 ovarian
SW-620 colon = tested on: SW-620 colon
HL-60(TB) leukemia = tested on: HL-60(TB) leukemia
HOP-92 NSCLC = tested on: HOP-92 NSCLC
SNB-19 CNS = tested on: SNB-19 CNS
A549 NSCLC = tested on: A549 NSCLC
MCF7 breast = tested on: MCF7 breast
MOLT-4 leukemia = tested on: MOLT-4 leukemia
ACHN renal = tested on: ACHN renal
TK-10 renal = tested on: TK-10 renal
M14 melanoma = tested on: M14 melanoma
SK-MEL-28 melanoma = tested on: SK-MEL-28 melanoma
HOP-62 NSCLC = tested on: HOP-62 NSCLC
SF-539 CNS = tested on: SF-539 CNS
SNB-75 CNS = tested on: SNB-75 CNS
T-47D breast = tested on: T-47D breast
SF-295 CNS = tested on: SF-295 CNS
DU-145 prostate = tested on: DU-145 prostate
OVCAR-4 ovarian = tested on: OVCAR-4 ovarian
NCI/ADR-RES ovarian = tested on: NCI/ADR-RES ovarian
KM12 colon = tested on: KM12 colon
UACC-257 melanoma = tested on: UACC-257 melanoma
MDA-MB-231 breast = tested on: MDA-MB-231 breast
RXF 393 renal = tested on: RXF 393 renal
MDA-N = tested on: MDA-N
NCI-H23 lung = tested on: NCI-H23 lung
SR leukemia = tested on: SR leukemia
NCI-H460 lung = tested on: NCI-H460 lung
SN12C renal = tested on: SN12C renal
UACC-62 melanoma = tested on: UACC-62 melanoma
K-562 leukemia = tested on: K-562 leukemia
SK-MEL-2 melanoma = tested on: SK-MEL-2 melanoma
U251 CNS = tested on: U251 CNS
OVCAR-5 ovarian = tested on: OVCAR-5 ovarian
A498 renal = tested on: A498 renal
OVCAR-3 ovarian = tested on: OVCAR-3 ovarian

For `COCc1nc(C#N)c(N)o1`, the TGI (BT-549 breast) was over 10 µM, the TGI (HT29 colon) was over 10 µM and the TGI (CAKI-1 renal) was over 10 µM. It also gave a TGI (MALME-3M melanoma) of over 10 µM, a TGI (CCRF-CEM leukemia) of over 10 µM and a TGI (786-0 renal) of over 10 µM. It also gave a TGI (UO-31 renal) of over 10 µM, a TGI (HCT-116 colon) of over 10 µM and a TGI (NCI-H522 lung) of over 10 µM. It also gave a TGI (SF-268 CNS) of over 10 µM, a TGI (SK-OV-3 ovarian) of over 10 µM and a TGI (LOX IMVI melanoma) of over 10 µM. It also gave a TGI (HCC-2998 colon) of over 10 µM, a TGI (EKVX NSCLC) of over 10 µM and a TGI (NCI-H226 lung) of over 10 µM. The TGI (MDA-MB-435) was over 10 µM, the TGI (HS 578T breast) was over 10 µM and the TGI (PC-3 prostate) was over 10 µM. The TGI (HCT-15 colon) was over 10 µM, the TGI (COLO 205 colon) was over 10 µM and the TGI (IGROV1 ovarian) was over 10 µM. The TGI (SK-MEL-5 melanoma) was over 10 µM, the TGI (RPMI-8226 leukemia) was over 10 µM and the TGI (OVCAR-8 ovarian) was over 10 µM. For the same compound, the TGI (SW-620 colon) was over 10 µM, the TGI (HL-60(TB) leukemia) was over 10 µM and the TGI (HOP-92 NSCLC) was over 10 µM. The TGI (SNB-19 CNS) was over 10 µM, the TGI (A549 NSCLC) was over 10 µM and the TGI (MCF7 breast) was over 10 µM. For the same compound, the TGI (MOLT-4 leukemia) was over 10 µM, the TGI (ACHN renal) was over 10 µM and the TGI (TK-10 renal) was over 10 µM. For the same compound, the TGI (M14 melanoma) was over 10 µM, the TGI (SK-MEL-28 melanoma) was over 10 µM and the TGI (HOP-62 NSCLC) was over 10 µM. The TGI (SF-539 CNS) was over 10 µM, the TGI (SNB-75 CNS) was over 10 µM and the TGI (T-47D breast) was over 10 µM. For the same compound, the TGI (SF-295 CNS) was over 10 µM, the TGI (DU-145 prostate) was over 10 µM and the TGI (OVCAR-4 ovarian) was over 10 µM. For the same compound, the TGI (NCI/ADR-RES ovarian) was over 10 µM, the TGI (KM12 colon) was over 10 µM and the TGI (UACC-257 melanoma) was over 10 µM. For the same compound, the TGI (MDA-MB-231 breast) was over 10 µM, the TGI (RXF 393 renal) was over 10 µM and the TGI (MDA-N) was over 10 µM. For the same compound, the TGI (NCI-H23 lung) was over 10 µM, the TGI (SR leukemia) was over 10 µM and the TGI (NCI-H460 lung) was over 10 µM. It also gave a TGI (SN12C renal) of over 10 µM, a TGI (UACC-62 melanoma) of over 10 µM and a TGI (K-562 leukemia) of over 10 µM.
`COC(=O)[C@]1(CCC(C)=O)C(=O)C=CN([C@H](C)c2ccccc2)[C@@H]1Cc1ccc(OC)c(OCc2ccccc2)c1I` was tested, and the TGI (BT-549 breast) was 46.3 µM, the TGI (HT29 colon) was 31.8 µM and the TGI (SK-MEL-2 melanoma) was 31.7 µM. It also gave a TGI (CAKI-1 renal) of over 100 µM, a TGI (CCRF-CEM leukemia) of over 100 µM and a TGI (786-0 renal) of 34.9 µM. It also gave a TGI (UO-31 renal) of 31.6 µM, a TGI (HCT-116 colon) of 27 µM and a TGI (NCI-H522 lung) of 41.6 µM. The TGI (SF-268 CNS) was 38.7 µM, the TGI (SK-OV-3 ovarian) was over 100 µM and the TGI (LOX IMVI melanoma) was 31 µM. For the same compound, the TGI (HCC-2998 colon) was 29.2 µM, the TGI (EKVX NSCLC) was over 100 µM and the TGI (NCI-H226 lung) was 34.3 µM. It also gave a TGI (MDA-MB-435) of 42.9 µM, a TGI (HS 578T breast) of 79.4 µM and a TGI (PC-3 prostate) of 74.5 µM. It also gave a TGI (HCT-15 colon) of 43.5 µM, a TGI (COLO 205 colon) of 47.7 µM and a TGI (IGROV1 ovarian) of 29.1 µM. It also gave a TGI (SK-MEL-5 melanoma) of 26.9 µM, a TGI (RPMI-8226 leukemia) of 51.7 µM and a TGI (OVCAR-8 ovarian) of 85.2 µM. The TGI (SW-620 colon) was over 100 µM, the TGI (HL-60(TB) leukemia) was 69.8 µM and the TGI (HOP-92 NSCLC) was 21.3 µM. For the same compound, the TGI (SNB-19 CNS) was 81.8 µM, the TGI (A549 NSCLC) was 73.5 µM and the TGI (MCF7 breast) was 46.2 µM. It also gave a TGI (MOLT-4 leukemia) of over 100 µM, a TGI (ACHN renal) of 71.8 µM and a TGI (TK-10 renal) of 56.8 µM. The TGI (M14 melanoma) was 28.2 µM, the TGI (SK-MEL-28 melanoma) was over 100 µM and the TGI (U251 CNS) was 33.9 µM. It also gave a TGI (HOP-62 NSCLC) of 51.7 µM, a TGI (SF-539 CNS) of 32.9 µM and a TGI (T-47D breast) of 49.4 µM. The TGI (SF-295 CNS) was 35.2 µM, the TGI (DU-145 prostate) was 37.5 µM and the TGI (OVCAR-4 ovarian) was over 100 µM. The TGI (NCI/ADR-RES ovarian) was 62.8 µM, the TGI (KM12 colon) was 43.1 µM and the TGI (UACC-257 melanoma) was 32.6 µM. It also gave a TGI (MDA-MB-231 breast) of 35.7 µM, a TGI (RXF 393 renal) of 23.6 µM and a TGI (MDA-N) of 41.3 µM. For the same compound, the TGI (NCI-H23 lung) was 49.6 µM, the TGI (OVCAR-5 ovarian) was 63.8 µM and the TGI (SR leukemia) was over 100 µM. The TGI (A498 renal) was 50.1 µM, the TGI (NCI-H460 lung) was 30.7 µM and the TGI (OVCAR-3 ovarian) was 31 µM. The TGI (SN12C renal) was 35 µM, the TGI (UACC-62 melanoma) was 29.2 µM and the TGI (K-562 leukemia) was over 100 µM.
In the case of `NS(=O)(=O)c1ccc(NNc2c3ccccc3nc3c(C(=O)Nc4ccc(S(N)(=O)=O)cc4)cccc23)cc1`, the TGI (BT-549 breast) was 54.7 µM, the TGI (HT29 colon) was 72.4 µM and the TGI (SK-MEL-2 melanoma) was 54.4 µM. The TGI (CAKI-1 renal) was over 100 µM, the TGI (MALME-3M melanoma) was 99.8 µM and the TGI (CCRF-CEM leukemia) was 80.3 µM. For the same compound, the TGI (786-0 renal) was over 100 µM, the TGI (UO-31 renal) was over 100 µM and the TGI (HCT-116 colon) was over 100 µM. The TGI (NCI-H522 lung) was 50.8 µM, the TGI (SF-268 CNS) was 98.4 µM and the TGI (SK-OV-3 ovarian) was over 100 µM. It also gave a TGI (LOX IMVI melanoma) of 27.5 µM, a TGI (HCC-2998 colon) of 86.7 µM and a TGI (EKVX NSCLC) of over 100 µM. For the same compound, the TGI (NCI-H226 lung) was over 100 µM, the TGI (MDA-MB-435) was over 100 µM and the TGI (HS 578T breast) was over 100 µM. It also gave a TGI (PC-3 prostate) of over 100 µM, a TGI (HCT-15 colon) of over 100 µM and a TGI (COLO 205 colon) of over 100 µM. The TGI (IGROV1 ovarian) was over 100 µM, the TGI (SK-MEL-5 melanoma) was over 100 µM and the TGI (RPMI-8226 leukemia) was over 100 µM. For the same compound, the TGI (OVCAR-8 ovarian) was over 100 µM, the TGI (SW-620 colon) was over 100 µM and the TGI (HL-60(TB) leukemia) was 68.9 µM. It also gave a TGI (HOP-92 NSCLC) of 73.4 µM, a TGI (SNB-19 CNS) of over 100 µM and a TGI (A549 NSCLC) of over 100 µM. It also gave a TGI (MCF7 breast) of over 100 µM, a TGI (MOLT-4 leukemia) of 49.6 µM and a TGI (ACHN renal) of over 100 µM. It also gave a TGI (TK-10 renal) of over 100 µM, a TGI (M14 melanoma) of over 100 µM and a TGI (SK-MEL-28 melanoma) of over 100 µM. The TGI (U251 CNS) was 61 µM, the TGI (HOP-62 NSCLC) was over 100 µM and the TGI (SF-539 CNS) was over 100 µM. For the same compound, the TGI (SNB-75 CNS) was over 100 µM, the TGI (T-47D breast) was over 100 µM and the TGI (SF-295 CNS) was over 100 µM. The TGI (DU-145 prostate) was over 100 µM, the TGI (OVCAR-4 ovarian) was 75.1 µM and the TGI (NCI/ADR-RES ovarian) was over 100 µM. It also gave a TGI (KM12 colon) of over 100 µM, a TGI (UACC-257 melanoma) of over 100 µM and a TGI (MDA-MB-231 breast) of over 100 µM. For the same compound, the TGI (RXF 393 renal) was 64.5 µM, the TGI (MDA-N) was over 100 µM and the TGI (NCI-H23 lung) was over 100 µM. The TGI (OVCAR-5 ovarian) was over 100 µM, the TGI (SR leukemia) was 57.9 µM and the TGI (A498 renal) was over 100 µM. The TGI (NCI-H460 lung) was over 100 µM, the TGI (OVCAR-3 ovarian) was over 100 µM and the TGI (SN12C renal) was over 100 µM. For the same compound, the TGI (UACC-62 melanoma) was over 100 µM and the TGI (K-562 leukemia) was 62.1 µM.
